Assay results: patent publication US20090074716A1, “METHOD FOR TREATING INFLUENZA VIRUS INFECTION” (priority 2006, published 2009)
“Also recorded” adds a separate entry of the source. Where a SMILES comes first, the peptide text is derived from it. The star is where a group is joined. Cbz = O=C(OCc1ccccc1)*

How the values were obtained:
[1] = test system: avian influenza A virus A/FPV/Bratislava/79; parameters: species or system C57B1/6 mice; conditions: mouse, in vivo
[2] = test system: avian influenza A virus A/FPV/Bratislava/79; type: cell-based, human lung epithelium cell line A549
TRAIL and FasL/CD95L = type: cell-based, human
IκBα [3] = assay: TNFα-induced IκBα degradation (NF-κB activation), Western blot, A549 cells; type: cell-based, human; conditions: 1 h pre-incubation, 15 min TNFα
[4] = test system: avian influenza virus A/FPV/Bratislava/79 (H7N7); type: cell-based, human A549 lung epithelium carcinoma cells
IκBα [5] = assay: TNFα-induced IκBα degradation (NF-κB activation), Western blot, HEK293 cells; type: cell-based; conditions: 1 h pre-incubation, 15 min TNFα
[6] = after intravenous application; cited from earlier work
26S proteasome = conditions: cited from earlier work

SMILES: CC(C)C[C@@H](C=O)NC(=O)[C@H](CC(C)C)NC(=O)[C@H](CC(C)C)NC(=O)OCc1ccccc1 [MG132, N-carbobenzoxy-L-leucinyl-L-leucinyl-L-leucinal] (Cbz-Leu-Leu-Leu-aldehyde)
- survival rate of infected mice versus untreated controls [1]: significantly increased
- influenza virus replication [2]: blocks
- reduction of the virus titre [2]: up to 10 times
- virus-induced expression of FasL (TRAIL and FasL/CD95L): clearly reduced; also recorded: blocks
- virus-induced expression of TRAIL (TRAIL and FasL/CD95L): clearly reduced; also recorded: blocks

SMILES: CC(C)C[C@H](NC(=O)[C@H](Cc1ccccc1)NC(=O)c1cnccn1)B(O)O [PS341, pyranosyl-phenyl-leucinyl-boric acid]
- prevention of TNFα-induced IκBα-degradation (IκBα [3]; 100 nM): not in a position to prevent
- reduction of the virus titre [4]: over 2 logarithmic levels
- prevention of TNFα-induced IκBα-degradation (IκBα [5]; 100 nM): not in a position to prevent
- biological availability [6]: biologically available

SMILES: CC(C)c1nc(CN(C)C(=O)N[C@H](C(=O)N[C@@H](Cc2ccccc2)C[C@H](O)[C@H](Cc2ccccc2)NC(=O)OCc2cncs2)C(C)C)cs1 [Ritonavir]
- concentration with unspecific effect on the proteasome (26S proteasome): approx. 10 micrograms

SMILES: CC(=O)N[C@@H](CSC(=O)[C@]1([C@@H](O)C(C)C)NC(=O)[C@H](C)[C@@H]1O)C(=O)O [lactacysteine]
- blocking of TNFα-induced IκBα-degradation (IκBα [3]; 1 μM): not effective enough to block
- reduction of the virus titre [4]: reduction
- blocking of TNFα-induced IκBα-degradation (IκBα [5]; 1 μM): not effective enough to block
